Laboratory results from ChEMBL document CHEMBL4483862, “Open-source discovery of chemical leads for next-generation chemoprotective antimalarials” (2018).

System: Plasmodium berghei
Test: Luciferase/luciferin-expressing antifolate-resistant parasites were used to infect a culture of HepG2 cells that were pre-incubated with compounds. Infected hepatocytes emit light due to the luciferase reaction. Assay results are presented as the percent inhibition of light emission compared to control. […]
Format: functional
Conditions: sporozoite; for IC50: read-out: LUCIFERASE INFECTION ASSAY - IC50; for IC90: read-out: LUCIFERASE INFECTION ASSAY - IC90

SMILES | IC50 [µM] | IC90 [µM]
COc1ccc(N2C(=O)/C(=C\NC3CCCCC3C)c3ccccc3C2=O)cc1OC (stereo not drawn) | > 10 | > 10
O=C(CN1CCN(C(=O)/C=C/c2ccccc2[N+](=O)[O-])CC1)Nc1ccc(Cl)c(C(F)(F)F)c1 | > 10 | > 10
Cc1cc(C(=O)CSc2nnc(Cn3cnc4ccccc43)n2-c2ccccc2Cl)c(C)n1C | > 10 | > 10
CN(CCC#N)C(=S)NCCc1ccccc1 | > 10 | > 10
CN(C)CCNS(=O)(=O)c1ccc(Cl)c([N+](=O)[O-])c1 | > 10 | > 10
CCOC(=O)c1ccc2c(c1)nc(-c1ccc(Sc3ccc(C)cc3)c([N+](=O)[O-])c1)n2CC | > 10 | > 10
O=[N+]([O-])c1c[nH]c(-c2csc(-n3nccc3C(F)(F)F)n2)c1 | 1.82 | 4.09
CCCCCCc1nc(SCC(=O)Nc2cc(C)on2)c2c(=O)n(C)c(=O)n(CCC)c2n1 | > 10 | > 10
O=C(Cc1ccsc1)NNC(=O)c1cccc(S(=O)(=O)Nc2cccc(C(F)(F)F)c2)c1 | > 10 | > 10
CC(=O)Nc1ccc(Sc2ccc(S(C)(=O)=O)cc2[N+](=O)[O-])cc1 | > 10 | > 10
Cc1ccc(S(=O)(=O)N2CCCCC2)cc1NC(=O)C[N+]12CCN(CC1)CC2 | > 10 | > 10
O=C1CSC(=O)N1CCN=Cc1c(O)n(-c2ccc(Cl)cn2)c(=O)c2ccccc12 | > 10 | > 10
Cc1cc(C)cc(N(CCC#N)C(=O)CSc2nc3cc(Cl)ccc3c(=O)n2Cc2ccccc2)c1 | > 10 | > 10
O=C(OCc1cccc2ccccc12)C1(c2ccccc2)CCN(S(=O)(=O)c2ccccc2)CC1 | 4.79 | > 10
O=C(c1cc(C(=O)N2CCCC2)c2nc3scc(-c4ccccc4)c3c(=O)n2c1)c1ccccc1O | > 10 | > 10
Cc1cc(C(=O)COn2nnc3ccc(S(=O)(=O)N4CCOCC4)cc32)c(C)n1C | > 10 | > 10
CCN(CC1COc2ccccc2O1)C(=O)c1ccccc1CSc1nc2nc(C)cc(C)n2n1 (stereo not drawn) | > 10 | > 10
COC(=O)c1ccc2c(=O)n(-c3ccccc3)c(SCC3CCCCO3)nc2c1 (stereo not drawn) | > 10 | > 10
COc1ccc(C)cc1N(CC(=O)Nc1ccccc1C(=O)NCCc1ccccc1)S(=O)(=O)c1ccccc1 | > 10 | > 10
Cc1ccc(CN(C)c2ccc([N+](=O)[O-])cc2Cl)o1 | > 10 | > 10

SMILES | IC50 [µM] | IC90 [µM]
COc1cc2c(cc1NC(=O)C(C)N1CCN(C/C=C/c3ccccc3)CC1)oc1ccccc12 (stereo not drawn) | 9.73 | > 10
O=C(CCCSc1nc2ccccc2s1)Nc1ccc(S(=O)(=O)NC2=NCCCCC2)cc1 | > 10 | > 10
CCOc1cc(N2CCOCC2)c(OCC)cc1NC(=O)c1cc(Cl)c(OC)c(OC)c1 | > 10 | > 10
CCN1CCCC1CNCC(=O)Nc1cc(Cl)ccc1C#N (stereo not drawn) | > 10 | > 10
N#Cc1cc([N+](=O)[O-])ccc1Sc1nnc(C2COc3ccccc3O2)n1-c1ccccc1 (stereo not drawn) | > 10 | > 10
CCC1CCc2sc(C(=O)NN)cc2C1 (stereo not drawn) | > 10 | > 10
Cc1ccccc1/N=C1\SCC(C)(C)N1C(=O)c1ccccc1OCc1ccccc1 | > 10 | > 10
O=[N+]([O-])c1ccc2nc3c(c(-c4ccccc4)c2c1)CSc1ccccc1-3 | > 10 | > 10
CC(NC(=O)c1ccc(S(=O)(=O)C(F)F)cc1)C12CC3CC(CC(C3)C1)C2 (stereo not drawn) | > 10 | > 10
O=C(OCC(=O)N1CCN(C(=O)c2ccco2)CC1)c1cccc(NS(=O)(=O)c2ccc(F)c(F)c2)c1 | > 10 | > 10
O=[N+]([O-])c1cccc(-c2csc(-n3nccc3C(F)(F)F)n2)c1 | > 10 | > 10
COc1cccc(-n2c(=O)c3ccccc3n3c(SCc4cc(=O)n5ccsc5n4)nnc23)c1 | > 10 | > 10
Cc1nc2cc(Nc3nc(CN4CCOCC4)nc4scc(-c5ccccc5)c34)ccc2n1-c1ccccc1 | > 10 | > 10
COc1cc(/C=C/C(=O)OC(C(=O)c2c[nH]c3ccccc23)c2ccccc2)cc(OC)c1OC (stereo not drawn) | > 10 | > 10
COc1cccc(N(C)C(=O)c2nn(Cc3ccccc3)c(=O)c3ccccc23)n1 | > 10 | > 10
COC(=O)c1cc(C(=O)OCC(=O)NCCC2=CCCCC2)cc([N+](=O)[O-])c1 | > 10 | > 10
COc1ccccc1N(CCC#N)C(=O)COC(=O)/C=C/c1ccc(OC(F)F)cc1 | > 10 | > 10
COc1ccc(C(=O)Nc2cccc(/C=C/C(=O)c3ccc(C4CCCCC4)cc3)c2)cc1 | 7.51 | 9.2
COc1ccc2cc(-c3nc4ccc(Cl)cc4c(-c4ccccc4F)c3C)ccc2c1 | 6.1 | > 10
